Laboratory results as given in patent publication US6737383B1, “Herbicidal oxadiazolidines” (priority 1999, dated 2004).

What was measured:
[1] = system: bedstraw; experiment: Test B pre/postemergence bedstraw; assay type: in vivo, Galium aparine
Method in brief: (§1)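 Herbicidal effect was estimated by eye on a ten-point control scale after plants spent twelve to sixteen days in a greenhouse following soil or foliar treatment. Foliar sprays targeted plants at one to four leaves; all doses were formulated in a non-phytotoxic solvent with surfactant.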

[2] = system: wild oat; experiment: Test B pre/postemergence wild oat; assay type: in vivo, Avena fatua
Method in brief: as §1

[3] = system: purple nutsedge; experiment: Test B pre/postemergence purple nutsedge; assay type: in vivo, Cyperus rotundus
Method in brief: as §1

[4] = system: blackgrass; experiment: Test B pre/postemergence blackgrass; assay type: in vivo, Alopecurus myosuroides
Method in brief: as §1

[5] = system: wheat; experiment: Test B pre/postemergence wheat; assay type: in vivo, Triticum aestivum
Method in brief: as §1

[6] = system: sugar beet; experiment: Test B pre/postemergence sugar beet; assay type: in vivo, Beta vulgaris
Method in brief: as §1

[7] = system: giant foxtail; experiment: Test B pre/postemergence giant foxtail; assay type: in vivo, Setaria faberii
Method in brief: as §1

[8] = system: bamyardgrass; experiment: Test B flood test barnyardgrass; assay type: in vivo, Echinochloa crus-galli; settings: Pre-emergence
Method in brief: (§2)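 Each value is a visual injury score relative to controls, with 10 meaning complete control and 0 no effect. Evaluation took place twelve to sixteen days after the 2-leaf-stage plants were treated and kept in the greenhouse.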

[9] = system: rape; experiment: Test B pre/postemergence rape; assay type: in vivo, Brassica napus
Method in brief: as §1

[10] = system: duck salad; experiment: Test B flood test duck salad; assay type: in vivo, Heteranthera limosa; settings: Pre-emergence
Method in brief: as §2

[11] = system: pigweed; experiment: Test B pre/postemergence pigweed; assay type: in vivo, Amaranthus retroflexus
Method in brief: as §1

[12] = system: surinam grass; experiment: Test B pre/postemergence surinam grass; assay type: in vivo, Brachiaria decumbens
Method in brief: as §1

[13] = system: morningglory; experiment: Test B pre/postemergence morningglory; assay type: in vivo, Ipomoea hederacea
Method in brief: as §1

[14] = system: smallflower flatsedge; experiment: Test B flood test smallflower flatsedge; assay type: in vivo, Cyperus difformis; settings: Pre-emergence
Method in brief: as §2

[15] = system: soybean; experiment: Test B pre/postemergence soybean; assay type: in vivo, Glycine max
Method in brief: as §1

[16] = system: cocklebur; experiment: Test B pre/postemergence cocklebur; assay type: in vivo, Xanthium strumarium
Method in brief: as §1

[17] = Preemergence, Rate 62 g/ha, scale of 0 to 10 where 0 is no effect and 10 is complete control
[18] = Rate 62 g/ha, Postemergence, scale 0 to 10 (0 no effect, 10 complete control)
[19] = Rate 125 g/ha, Postemergence, scale of 0 to 10 where 0 is no effect and 10 is complete control
[20] = Rate 250 g/ha, Postemergence, scale of 0 to 10 where 0 is no effect and 10 is complete control
[21] = Preemergence, Rate 250 g/ha, scale of 0 to 10 where 0 is no effect and 10 is complete control
[22] = Preemergence, Rate 500 g/ha, scale of 0 to 10 where 0 is no effect and 10 is complete control
[23] = Rate 500 g/ha, Postemergence, scale 0 to 10, 0 no effect, 10 complete control
[24] = Rate 1000 g/ha, scale 0 to 10 (0 no effect, 10 complete control)
[25] = Rate 125 g/ha, flood test species, scale 0 to 10 where 0 is no effect and 10 is complete control
[26] = Rate 250 g/ha, flood-test species, scale 0 to 10, 0 is no effect, 10 is complete control
[27] = Rate 500 g/ha, flood test species, scale 0 to 10 (0 no effect, 10 complete control)

COC(Cn1c(=O)on(C(=O)N(c2ccc(F)cc2)C(C)C)c1=O)OC [Compound 317]
3: Blackgrass plant response rating [4, 17] | Plant response rating, Redroot pigweed [11, 20] | Morningglory plant response rating [13, 19] | Plant response rating, Morningglory [13, 20] | Soybean plant response rating [15, 18]
6: Bedstraw plant response rating [1, 19] | B. signalgrass plant response rating (0 to 10 scale, 0 is no effect, 10 is complete control) ([12]; Preemergence, Rate 125 g/ha) | Plant response rating, Soybean [15, 20]
5: Wild oats plant response rating [2, 17] | Plant response rating, Wheat [5, 20] | Giant foxtail plant response rating [7, 18] | Giant foxtail plant response rating [7, 19] | B. signalgrass plant response rating [12, 17]
0: Bedstraw plant response rating [1, 17] | Wild oats plant response rating [2, 18] | Wild oats plant response rating [2, 19] | Plant response rating, Wild oats [2, 20] | Nutsedge plant response rating [3, 17] | Nutsedge plant response rating [3, 21] | Nutsedge plant response rating [3, 22] | Nutsedge plant response rating [3, 18] | Nutsedge plant response rating [3, 19] | Plant response rating, Nutsedge [3, 20] | Wheat plant response rating [5, 18] | Sugarbeets plant response rating [6, 18] | Sugarbeets plant response rating [6, 19] | Barnyardgrass plant response rating [8, 24] | Barnyardgrass plant response rating [8, 25] | Barnyardgrass plant response rating [8, 26] | Barnyardgrass plant response rating [8, 27] | Rape plant response rating [9, 17] | Rape plant response rating [9, 18] | Rape plant response rating [9, 19] | Ducksalad plant response rating [10, 24] | Ducksalad plant response rating [10, 25] | Ducksalad plant response rating [10, 26] | Ducksalad plant response rating [10, 27] | Redroot pigweed plant response rating [11, 18] | Redroot pigweed plant response rating [11, 19] | B. signalgrass plant response rating [12, 18] | Morningglory plant response rating [13, 17] | Morningglory plant response rating (0 to 10 scale) ([13]; Preemergence, Rate 125 g/ha) | Morningglory plant response rating [13, 21] | Morningglory plant response rating [13, 22] | S. Flatsedge plant response rating [14, 24] | S. Flatsedge plant response rating [14, 25] | S. Flatsedge plant response rating [14, 26] | S. Flatsedge plant response rating [14, 27] | Soybean plant response rating [15, 17] | Soybean plant response rating (0 to 10 scale) ([15]; Preemergence, Rate 125 g/ha) | Soybean plant response rating [15, 21] | Cocklebur plant response rating (0 to 10 scale) ([16]; Preemergence, Rate 125 g/ha) | Cocklebur plant response rating [16, 22] | Cocklebur plant response rating [16, 18] | Cocklebur plant response rating [16, 19] | Plant response rating, Cocklebur [16, 20]
4: Sugarbeets plant response rating (0 to 10 scale) ([6]; Preemergence, Rate 125 g/ha) | Soybean plant response rating [15, 22] | Soybean plant response rating [15, 19]
2: Bedstraw plant response rating [1, 18] | Wheat plant response rating (0 to 10 scale) ([5]; Preemergence, Rate 125 g/ha) | Rape plant response rating (0 to 10 scale) ([9]; Preemergence, Rate 125 g/ha) | Redroot pigweed plant response rating [11, 17]
10: Wild oats plant response rating [2, 22] | Blackgrass plant response rating [4, 22] | Giant foxtail plant response rating (0 to 10 scale) ([7]; Preemergence, Rate 125 g/ha) | Giant foxtail plant response rating [7, 21] | Giant foxtail plant response rating [7, 22] | Rape plant response rating [9, 22] | Redroot pigweed plant response rating [11, 22]
9: Blackgrass plant response rating [4, 23] | Giant foxtail plant response rating [7, 17]
8: Plant response rating, Bedstraw [1, 20] | Wild oats plant response rating (0 to 10 scale) ([2]; Preemergence, Rate 125 g/ha) | Wild oats plant response rating [2, 21] | Blackgrass plant response rating (0 to 10 scale) ([4]; Preemergence, Rate 125 g/ha) | Blackgrass plant response rating [4, 21] | Blackgrass plant response rating [4, 18] | Blackgrass plant response rating [4, 19] | Plant response rating, Blackgrass [4, 20] | Wheat plant response rating [5, 22] | Sugarbeets plant response rating [6, 22] | Plant response rating, Giant foxtail [7, 20] | Rape plant response rating [9, 21] | B. signalgrass plant response rating [12, 22] | B. signalgrass plant response rating [12, 23]
7: Wheat plant response rating [5, 21] | Sugarbeets plant response rating [6, 21] | Redroot pigweed plant response rating (0 to 10 scale) ([11]; Preemergence, Rate 125 g/ha) | Redroot pigweed plant response rating [11, 21] | B. signalgrass plant response rating [12, 21] | Plant response rating, B. signalgrass [12, 20]
1: Wheat plant response rating [5, 17] | Wheat plant response rating [5, 19] | Sugarbeets plant response rating [6, 17] | Plant response rating, Sugarbeets [6, 20] | Plant response rating, Rape [9, 20] | B. signalgrass plant response rating [12, 19] | Morningglory plant response rating [13, 18] | Cocklebur plant response rating [16, 23]
